Data as given in patent US20130102493A1, “GENE EXPRESSION ANALYSES FOR CHARACTERIZING AND IDENTIFYING GENOTOXIC COMPOUNDS” (MERCK PATENT GESELLSCHAFT MIT BESCHRANKTER HAFTUNG, priority 2010, published 2013).
Like-named read-outs stand apart in the source and are kept apart here. Marks after values point to notes of the source that are not given here. *1 amine or outer side, *2 acyl side, *3 side chain or, on linkers, in order; H or OH if unused. Where a SMILES comes first, the peptide text is derived from it. Bridges are numbered along the chain shown (N, C = ends). Roman numbers before positions name the chains, in order. [ ]: non-standard residue; d: D form. Actinocin(9to1) = Cc1c2oc3c(C)ccc(C(=O)[*:1])c3nc-2c(C(=O)[*:2])c(N)c1=O; NMeV = CN[C@H](C(=O)O)C(C)C; Sar = CNCC(=O)O

Assays:
HepG2 cells [1] = tested on: HepG2 cells
HepG2 cells [2] = tested on: HepG2 cells; remark: listed apart in the source
HepG2 cells [3] = tested on: HepG2 cells; remark: listed apart in the source
[4] = tested on: CYP competent primary hepatocytes; conditions: cited from earlier work

Cc1c2ccccc2c(C)c2c1ccc1ccccc12 [DMBA, 7,12-dimethylbenz[a]anthracene]
gene expression changes, single compound analysis vs vehicle controls (HepG2 cells [1]; DMBA 10 μM w/o S9): extremely weak or no statistically significant
CDKN1A gene regulation relative to vehicle/S9 control (HepG2 cells [1]; DMBA 10 μM, +S9, 48 h): 3.18* fold
CRABP2 gene regulation relative to vehicle/S9 control (HepG2 cells [1]; DMBA 10 μM, +S9, 48 h): 2.31* fold
EMP1 gene regulation relative to vehicle/S9 control (HepG2 cells [1]; DMBA 10 μM, +S9, 48 h): 1.93* fold
EMP3 gene regulation relative to vehicle/S9 control (HepG2 cells [1]; DMBA 10 μM, +S9, 48 h): 2.61* fold
IER5 gene regulation relative to vehicle/S9 control (HepG2 cells [1]; DMBA 10 μM, +S9, 48 h): 1.83* fold
LGALS7 gene regulation relative to vehicle/S9 control (HepG2 cells [1]; DMBA 10 μM, +S9, 48 h): 1.93* fold
PLAU gene regulation relative to vehicle/S9 control (HepG2 cells [1]; DMBA 10 μM, +S9, 48 h): 2.13* fold
PROCR gene regulation relative to vehicle/S9 control (HepG2 cells [1]; DMBA 10 μM, +S9, 48 h): 2.26* fold
CDKN1A gene regulation relative to vehicle/S9 control (HepG2 cells [1]; DMBA 10 μM, without S9, 48 h): 1.36 fold
CRABP2 gene regulation relative to vehicle/S9 control (HepG2 cells [1]; DMBA 10 μM, without S9, 48 h): 1.10 fold
EMP1 gene regulation relative to vehicle/S9 control (HepG2 cells [1]; DMBA 10 μM, without S9, 48 h): 1.11 fold
EMP3 gene regulation relative to vehicle/S9 control (HepG2 cells [1]; DMBA 10 μM, without S9, 48 h): 1.18 fold
IER5 gene regulation relative to vehicle/S9 control (HepG2 cells [1]; DMBA 10 μM, without S9, 48 h): 1.30* fold
LGALS7 gene regulation relative to vehicle/S9 control (HepG2 cells [1]; DMBA 10 μM, without S9, 48 h): 1.25* fold
PLAU gene regulation relative to vehicle/S9 control (HepG2 cells [1]; DMBA 10 μM, without S9, 48 h): 1.29* fold
PROCR gene regulation relative to vehicle/S9 control (HepG2 cells [1]; DMBA 10 μM, without S9, 48 h): 1.18 fold
regulation of the 91 genes (HepG2 cells [1]; DMBA 75 μM w/o S9): relatively weak
CDKN1A gene regulation relative to vehicle/S9 control (HepG2 cells [1]; DMBA 75 μM, without S9, 48 h): 1.50* fold
CRABP2 gene regulation relative to vehicle/S9 control (HepG2 cells [1]; DMBA 75 μM, without S9, 48 h): 1.27 fold
EMP1 gene regulation relative to vehicle/S9 control (HepG2 cells [1]; DMBA 75 μM, without S9, 48 h): 1.31 fold
EMP3 gene regulation relative to vehicle/S9 control (HepG2 cells [1]; DMBA 75 μM, without S9, 48 h): 1.38* fold
IER5 gene regulation relative to vehicle/S9 control (HepG2 cells [1]; DMBA 75 μM, without S9, 48 h): 1.26* fold
LGALS7 gene regulation relative to vehicle/S9 control (HepG2 cells [1]; DMBA 75 μM, without S9, 48 h): 1.26 fold
PLAU gene regulation relative to vehicle/S9 control (HepG2 cells [1]; DMBA 75 μM, without S9, 48 h): 1.53* fold
PROCR gene regulation relative to vehicle/S9 control (HepG2 cells [1]; DMBA 75 μM, without S9, 48 h): 1.32* fold
Categorization (HepG2 cells [2]; 10 μM, 48 h, with S9): genotoxic
Categorization (HepG2 cells [2]; 75 μM, 48 h, without S9): genotoxic^#
Categorization (HepG2 cells [2]; DMBA 10 μM, 48 h, without S9): non-genotoxic
prediction using the 91 top-scored genes (HepG2 cells [3]; 75 μM w/o S9): predicted correctly

COS(C)(=O)=O [MMS, methyl methanesulfonate]
EGR1 gene regulation (HepG2 cells [1]): up-regulation
MYC gene regulation (HepG2 cells [1]): down-regulated
AP endonuclease 2 (APEX2) gene regulation (HepG2 cells [1]; after 24 h and 48 h treatment): up-regulated
β-polymerase (POLB) gene regulation (HepG2 cells [1]; after 48 h exposure): up-regulated

aflatoxin B1 [AFB1]
EGR1 gene regulation (HepG2 cells [1]): up-regulation
gene expression changes, single compound analysis vs vehicle controls (HepG2 cells [1]): extremely weak or no statistically significant

Cc1c2oc3c(C)ccc(C(=O)N[C@@H]4C(=O)N[C@H](C(C)C)C(=O)N5CCC[C@H]5C(=O)N(C)CC(=O)N(C)[C@@H](C(C)C)C(=O)O[C@@H]4C)c3nc-2c(C(=O)N[C@@H]2C(=O)N[C@H](C(C)C)C(=O)N3CCC[C@H]3C(=O)N(C)CC(=O)N(C)[C@@H](C(C)C)C(=O)O[C@@H]2C)c(N)c1=O [ACT, actinomycin D] (I: T[dV]P[Sar][NMeV] / II: T[dV]P[Sar][NMeV]; ester I:1-I:C, II:1-II:C; linker I:N-II:N via Actinocin(9to1))
MYC gene regulation (HepG2 cells [1]): down-regulated
RNA polymerase II gene regulation (HepG2 cells [1]): down-regulation
topoisomerase II (TOPO2) gene regulation (HepG2 cells [1]): down-regulation
CDKN1A gene regulation relative to vehicle/S9 control (HepG2 cells [1]; ACT 250 nM, without S9, 48 h): −1.15 fold
CRABP2 gene regulation relative to vehicle/S9 control (HepG2 cells [1]; ACT 250 nM, without S9, 48 h): 2.82* fold
EMP1 gene regulation relative to vehicle/S9 control (HepG2 cells [1]; ACT 250 nM, without S9, 48 h): 1.91* fold
EMP3 gene regulation relative to vehicle/S9 control (HepG2 cells [1]; ACT 250 nM, without S9, 48 h): 5.68* fold
IER5 gene regulation relative to vehicle/S9 control (HepG2 cells [1]; ACT 250 nM, without S9, 48 h): 3.07* fold
LGALS7 gene regulation relative to vehicle/S9 control (HepG2 cells [1]; ACT 250 nM, without S9, 48 h): 1.69* fold
PLAU gene regulation relative to vehicle/S9 control (HepG2 cells [1]; ACT 250 nM, without S9, 48 h): 3.69* fold
PROCR gene regulation relative to vehicle/S9 control (HepG2 cells [1]; ACT 250 nM, without S9, 48 h): 2.58* fold
Categorization (HepG2 cells [2]; 250 nM, 24 h, without S9): genotoxic
Categorization (HepG2 cells [2]; 250 nM, 48 h, without S9): genotoxic

CCN(CC)N=O [DEN, N-nitrosodiethylamine]
concentrations giving a positive response [4]: 10000 to 32000 µM
EGR1 gene regulation (HepG2 cells [1]): up-regulation
number of down-regulated genes (HepG2 cells [1]): 57
number of up-regulated genes (HepG2 cells [1]): 88
CDKN1A gene regulation relative to vehicle/S9 control (HepG2 cells [1]; DEN 25 mM, +S9, 48 h): 1.95* fold
CRABP2 gene regulation relative to vehicle/S9 control (HepG2 cells [1]; DEN 25 mM, +S9, 48 h): 2.09* fold
EMP1 gene regulation relative to vehicle/S9 control (HepG2 cells [1]; DEN 25 mM, +S9, 48 h): 1.84* fold
EMP3 gene regulation relative to vehicle/S9 control (HepG2 cells [1]; DEN 25 mM, +S9, 48 h): 2.26* fold
IER5 gene regulation relative to vehicle/S9 control (HepG2 cells [1]; DEN 25 mM, +S9, 48 h): 1.50* fold
LGALS7 gene regulation relative to vehicle/S9 control (HepG2 cells [1]; DEN 25 mM, +S9, 48 h): 1.77 fold
PLAU gene regulation relative to vehicle/S9 control (HepG2 cells [1]; DEN 25 mM, +S9, 48 h): 1.84 fold
PROCR gene regulation relative to vehicle/S9 control (HepG2 cells [1]; DEN 25 mM, +S9, 48 h): 1.76* fold
CDKN1A gene regulation relative to vehicle/S9 control (HepG2 cells [1]; DEN 25 mM, without S9, 48 h): −1.19 fold
CRABP2 gene regulation relative to vehicle/S9 control (HepG2 cells [1]; DEN 25 mM, without S9, 48 h): 1.54* fold
EMP1 gene regulation relative to vehicle/S9 control (HepG2 cells [1]; DEN 25 mM, without S9, 48 h): 1.61* fold
EMP3 gene regulation relative to vehicle/S9 control (HepG2 cells [1]; DEN 25 mM, without S9, 48 h): 1.04 fold
IER5 gene regulation relative to vehicle/S9 control (HepG2 cells [1]; DEN 25 mM, without S9, 48 h): 1.06 fold
LGALS7 gene regulation relative to vehicle/S9 control (HepG2 cells [1]; DEN 25 mM, without S9, 48 h): 1.11 fold
PLAU gene regulation relative to vehicle/S9 control (HepG2 cells [1]; DEN 25 mM, without S9, 48 h): 1.86* fold
PROCR gene regulation relative to vehicle/S9 control (HepG2 cells [1]; DEN 25 mM, without S9, 48 h): 1.30 fold
CDKN1A gene regulation relative to vehicle/S9 control (HepG2 cells [1]; DEN 50 mM, +S9, 48 h): 2.20* fold
CRABP2 gene regulation relative to vehicle/S9 control (HepG2 cells [1]; DEN 50 mM, +S9, 48 h): 1.80* fold
EMP1 gene regulation relative to vehicle/S9 control (HepG2 cells [1]; DEN 50 mM, +S9, 48 h): 2.09* fold
EMP3 gene regulation relative to vehicle/S9 control (HepG2 cells [1]; DEN 50 mM, +S9, 48 h): 2.03* fold
IER5 gene regulation relative to vehicle/S9 control (HepG2 cells [1]; DEN 50 mM, +S9, 48 h): 1.51 fold
LGALS7 gene regulation relative to vehicle/S9 control (HepG2 cells [1]; DEN 50 mM, +S9, 48 h): 1.97* fold
PLAU gene regulation relative to vehicle/S9 control (HepG2 cells [1]; DEN 50 mM, +S9, 48 h): 1.59* fold
PROCR gene regulation relative to vehicle/S9 control (HepG2 cells [1]; DEN 50 mM, +S9, 48 h): 1.63* fold
CDKN1A gene regulation relative to vehicle/S9 control (HepG2 cells [1]; DEN 50 mM, without S9, 48 h): −1.48* fold
CRABP2 gene regulation relative to vehicle/S9 control (HepG2 cells [1]; DEN 50 mM, without S9, 48 h): 1.40 fold
EMP1 gene regulation relative to vehicle/S9 control (HepG2 cells [1]; DEN 50 mM, without S9, 48 h): 1.37 fold
EMP3 gene regulation relative to vehicle/S9 control (HepG2 cells [1]; DEN 50 mM, without S9, 48 h): 1.02 fold
IER5 gene regulation relative to vehicle/S9 control (HepG2 cells [1]; DEN 50 mM, without S9, 48 h): 1.03 fold
LGALS7 gene regulation relative to vehicle/S9 control (HepG2 cells [1]; DEN 50 mM, without S9, 48 h): 1.23* fold
PLAU gene regulation relative to vehicle/S9 control (HepG2 cells [1]; DEN 50 mM, without S9, 48 h): 1.44 fold
PROCR gene regulation relative to vehicle/S9 control (HepG2 cells [1]; DEN 50 mM, without S9, 48 h): 1.20 fold
classification by 91 gene-classifier (HepG2 cells [3]; with S9 (MAS)): genotoxic
classification by 91 gene-classifier (HepG2 cells [3]; without S9): non-genotoxic

O=P1(N(CCCl)CCCl)NCCCO1 (centres unmarked) [CPA, cyclophosphamide]
EGR1 gene regulation (HepG2 cells [1]): up-regulation
gene expression changes, single compound analysis vs vehicle controls (HepG2 cells [1]): extremely weak or no statistically significant
